The text below walks through data of patent US7728043B2, “Methods for treatment of beta-amyloid protein-induced ocular disease” (priority 1999, dated 2010).

The test system of assay [1] is IMR32 cells. Kind of assay: MTT reduction assay, βA peptide-induced toxicity, IMR32 cells. The class given is cell-based, human. The settings on record: βA peptide(25-35). On the procedure: (§1) The degree of βA insult was measured by 3-[4,5-dimethylthiazol-2-yl]-2,5-diphenyltetrazolium bromide (MTT) reduction assay. […] The detection of cell growth or cell death can be determined by observing the conversion of MTT to the colored product, MTT formazan, the concentration of which can be measured […] at 550 nm.
(§2) Cells were incubated in MTT solution (5 mg/ml) at 37° C. for 2 hours. During this time, cells were observed under a microscope every 15 min. Cells were incubated in Lysing buffer (100 μl) overnight at 37° C. Colorimetric determination of MTT reduction was made at 550 nm.
(§3) PC12 rat pheochromocytoma and IMR32 human neuroblastoma cells were obtained from the American Type Culture Collection (ATCC). HUVEC normal umbilical human vein endothelial cells were obtained from Clonetics (San Diego, Calif.). Cells were routinely cultured on a tissue culture plate (Corning, N.Y., N.Y.). PC12 cells were grown in high glucose Dulbecco's Modified Eagle Medium (DMEM), 10% horse serum, 5% fetal calf serum, and 1% penicillin/streptomycin. IMR32 cells were grown in 90% DMEM and 10% fetal calf serum with 1% penicillin/streptomycin. HUVEC cells were grown in EGM-2 Bullet Kit (Clonetics, San Diego, Calif.).
A general note: Formazan colour is commonly taken as a measure of viable cells.

For assay [2], the system named is PC12 cells. Kind of assay: MTT reduction assay, βA peptide-induced toxicity, PC12 cells. The class given is cell-based, rat. Here is the method:
as §1, §2, §3
PC12 cells were cultured routinely on polystyrene-coated Corning tissue culture plates. […] The 96-well plates were coated with rat tail collagen (Boehringer Mannheim) in order to promote uniform PC12 cell attachment and growth.

Assay [3] concerns HUVEC cells. In words: MTT reduction assay, βA peptide-induced toxicity, HUVEC cells. The class given is cell-based, human. Here is the method: as §1, §2, §3
Assay [4] in a line: Antioxidant assay, scavenging of DPPH free radicals. The settings on record: for Antioxidant IC50: Table 1, turmeric-derived natural product compounds, scavenging 50% of DPPH free radicals; for Antioxidant activity (DPPH free radical scavenging), in words: optical density change of DPPH radicals at 515 nm. Here is the method: Kim et al., Neurosci Lett 303, 57 (2001) and Barik et al., Free Radic Biol Med 39, 811 (2005).
Using an antioxidant assay, the antioxidant potency of the compounds of the invention was evaluated. 1,1-Diphenyl-2-picrylhydrazyl (DPPH) is known to generate stable free radicals in aqueous and ethanolic solutions. The ability of the compounds of the invention to scavenge these free radicals was measured by observing the optical density change of DPPH radicals at 515 nm. Kim et al., Neurosci Lett 303, 57 (2001) and Barik et al., Free Radic Biol Med 39, 811 (2005).
The samples were prepared in various concentrations (200, 20, 2.0, and 0.2 μg/ml) by serial dilution of a stock solution (5 mg/ml) and were tested by the following procedure. Reaction mixtures containing test compounds (dissolved in DMSO) and 300 μM DPPH ethanolic solution in 96-well microtiter plates were incubated at 37° C. for 30 min. and absorbance was measured at 515 nm. Percent inhibition by sample treatment was determined by comparison with a DMSO-treated […] control group. IC50 values were determined from percent inhibition by sample. IC50 values denote the concentration of the tested compound that was required to scavenge 50% of the DPPH free radicals.
A general note: The DPPH test is a chemical assay of radical scavenging.

Assay [5] has as its system cells treated with βA peptide. In words: Protection of cells from βA peptide insult, statements in words (MTT assay, cells not singled out). The class given is cell-based. The settings on record: MTT reduction assay; PC12, IMR32, HUVEC cells where named in the sentence. On the procedure:
as §1, §2

For assay [6], the system named is primary cortical rat neuronal cells. In words: Protection of primary cortical neuronal cells against βA peptide (1-42) insult. The class given is cell-based. The settings on record: compound at 5 μg/ml; βA peptide (1-42) 10 μg/ml. Here is the method: as §2
Primary cortical rat neuronal cells were obtained in the following manner. Dissociated primary neuronal cell cultures were established from 18-day-old Sprague-Dawley rat fetuses. The pups were delivered by caesarean section while the dam was anesthetized with ether. Hippocampal tissue from embryonic day 18 Sprague-Dawley rat pups was dissected and then rinsed in cold Ca^2+/Mg^2+-free Hank's balanced salt solution supplemented with 20 mM HEPES, 4.2 mM sodium bicarbonate, 1 mM pyruvate, and 3 mg/ml bovine serum albumin (BSA). Following gentle trituration of the tissue with a constricted pipette in cold buffer, two volumes of 10% fetal bovine serum (FBS) in DMEM were added to the suspension. After the suspension settled for 2 minutes, the supernatant was collected and centrifuged for 2 min. at 200×g. The cell pellets were resuspended in serum-free DMEM (pH 7.3), supplemented with 2.4 mg/ml BSA and a modification of Brewer's […] defined components (with 250 nM vitamin B12 and without catalase, glutathione, and superoxide dismutase). Cells were plated at a density of 15,000 cells/cm^2 and grown at 37° C. After 24 hours of incubation to allow cell attachment, the serum-containing medium was replaced by defined medium with DMEM/F12 containing bovine transferrin (100 μg/ml), bovine insulin (5 μg/ml), putrescine (0.1 mM), progesterone (10 nM), sodium selenite (30 nM), sodium pyruvate (1 mM), and potassium bicarbonate (15 mM). Cells maintained for extended periods of time were fed twice a week by replacing ⅓ of the medium with fresh medium.

Where [7] appears, read: Table 1, turmeric-derived natural product compounds.
The mark [8] stands for this setting: Table 1, turmeric-derived natural product compounds, concentration for 50% cell viability.
[9] abbreviates: Table 3, ginger-derived natural product compounds.

Turning to `O=C(C=C(O)C=Cc1ccc(O)c(O)c1)CCc1ccc(O)cc1` [Compound 5], in assay [1] (setting [7]), the “Anti-βA peptide(25-35) ED50 IMR32” value amounted to 1.5 µg/mL. The “Anti-βA peptide(1-42) ED50 PC12” value in assay [2] (setting [7]) came to 3.0 µg/mL. Further, the “Anti-βA peptide(25-35) ED50 PC12” value in assay [2] (setting [8]) is 2.5 µg/mL. Further, in assay [3] (setting [7]), the “Anti-βA peptide(1-42) ED50 HUVEC” value was found to be 1.5 µg/mL and the “Anti-βA peptide(25-35) ED50 HUVEC” value is 2.0 µg/mL. Moreover, the “Antioxidant IC50” value in assay [4] is greater than 200 µg/mL. The “Protection of cells from βA peptide-induced toxicity, in words” value (“Protection of cells” below) in assay [5] was “protected”. Further, the “Protection of primary cortical neuronal cells against βA peptide (1-42) insult” value (“Protection … (1-42) insult” for short) in assay [6] is given as “protected”.

With `COc1cc(C=CC(=O)CC(=O)C=Cc2ccc(O)cc2)ccc1O` [Compound 2, 1-(4-hydroxy-3-methoxyphenyl)-7-(4-hydroxyphenyl)-1,6-heptadiene-3,5-dione], the “Anti-βA peptide(25-35) ED50 IMR32” value in assay [1] (setting [7]) came out at 4.0 µg/mL. The “Anti-βA peptide(1-42) ED50 PC12” value in assay [2] (setting [7]) was 5.0 µg/mL. Besides, the “Anti-βA peptide(25-35) ED50 PC12” value in assay [2] (setting [8]) amounted to 4.0 µg/mL. Further, in assay [3] (setting [7]), the “Anti-βA peptide(1-42) ED50 HUVEC” value was determined as 5.0 µg/mL and the “Anti-βA peptide(25-35) ED50 HUVEC” value is 4.5 µg/mL. In addition, in assay [4], the “Antioxidant IC50” value is 36.2 µg/mL and the “Antioxidant activity (DPPH free radical scavenging), in words” value is given as “strong antioxidant activity”. In assay [5], the “Protection of cells” value is “protected”. Besides, in assay [6], the “Protection … (1-42) insult” value is on record as “protected”.

`COc1cc(/C=C/C(=O)COC(=O)/C=C/c2ccc(O)c(OC)c2)ccc1O` [Compound 6, 4″-(3′″-methoxy-4′″-hydroxyphenyl)-2″-oxo-3″-enebutanyl 3-(3′-methoxy-4′-hydroxyphenyl)propenoate]: in assay [1] (setting [7]), the “Anti-βA peptide(25-35) ED50 IMR32” value came to 1.0 µg/mL. The “Anti-βA peptide(1-42) ED50 PC12” value in assay [2] (setting [7]) was found to be 2.0 µg/mL. In addition, the “Anti-βA peptide(25-35) ED50 PC12” value in assay [2] (setting [8]) turned out to be 1.0 µg/mL. Besides, in assay [3] (setting [7]), the “Anti-βA peptide(1-42) ED50 HUVEC” value is 1.0 µg/mL and the “Anti-βA peptide(25-35) ED50 HUVEC” value is 1.5 µg/mL. Besides, the “Antioxidant IC50” value in assay [4] is greater than 200 µg/mL. Besides, the “Protection of cells” value in assay [5] is reported as “protected”. Moreover, the “Protection … (1-42) insult” value in assay [6] is “protected”.

On to `CCCCC/C=C/C(=O)CCc1ccc(O)c(OC)c1` [Compound 12], for which the “Anti-βA peptide(25-35) ED50 IMR32” value in assay [1] (setting [9]) amounted to 8.0 µg/mL. Besides, in assay [2] (setting [9]), the “Anti-βA peptide(1-42) ED50 PC12” value came out at 10 µg/mL and the “Anti-βA peptide(25-35) ED50 PC12” value stood at 9.0 µg/mL. In assay [3] (setting [9]), the “Anti-βA peptide(1-42) ED50 HUVEC” value was determined as 18 µg/mL and the “Anti-βA peptide(25-35) ED50 HUVEC” value is 20 µg/mL. Also, in assay [4], the “Antioxidant activity (DPPH free radical scavenging), in words” value is given as “None of these compounds exhibited significant antioxidant activity”. In addition, the “Protection of cells” value in assay [5] was “effectively protected”.

For the compound `CCCCCCCC/C=C/C(=O)CCc1ccc(O)c(OC)c1` [Compound 13, [9]-shogaol], the “Anti-βA peptide(25-35) ED50 IMR32” value in assay [1] (setting [9]) is 2.0 µg/mL. In assay [2] (setting [9]), the “Anti-βA peptide(1-42) ED50 PC12” value amounted to 4.0 µg/mL and the “Anti-βA peptide(25-35) ED50 PC12” value came out at 3.0 µg/mL. Also, in assay [3] (setting [9]), the “Anti-βA peptide(1-42) ED50 HUVEC” value was determined as 8.0 µg/mL and the “Anti-βA peptide(25-35) ED50 HUVEC” value was 8.0 µg/mL. The “Antioxidant activity (DPPH free radical scavenging), in words” value in assay [4] is given as “None of these compounds exhibited significant antioxidant activity”. Besides, the “Protection of cells” value in assay [5] was “effectively protected”.
